Results on 3 compounds are retold here after US20100137277A1, “PYRIDINE COMPOUNDS AND THEIR USE AS P2Y12 ANTAGONISTS” (ASTRAZENECA AB, priority 2007, published 2010).

The target of the assay is T1, P2Y12 receptor (Homo sapiens, UniProt Q9H244).
T1 construct: expressed in transfected cells; host or cells: CHO cells (membranes)
T1 sequence (Q9H244 whole entry): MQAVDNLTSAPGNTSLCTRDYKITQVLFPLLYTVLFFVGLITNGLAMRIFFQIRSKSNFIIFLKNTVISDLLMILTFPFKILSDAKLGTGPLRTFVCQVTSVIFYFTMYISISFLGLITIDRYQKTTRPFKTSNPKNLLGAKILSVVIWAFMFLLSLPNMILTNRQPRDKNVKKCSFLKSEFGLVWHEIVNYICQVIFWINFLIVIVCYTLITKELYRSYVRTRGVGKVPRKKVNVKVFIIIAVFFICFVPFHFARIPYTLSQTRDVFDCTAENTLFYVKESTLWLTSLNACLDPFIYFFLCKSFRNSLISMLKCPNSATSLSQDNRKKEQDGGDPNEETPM
The assay can be described thus: Functional inhibition of 2-Me-S-ADP induced P2Y12 signalling (35S-GTPγS binding, membranes from P2Y12 transfected CHO-cells). Particulars: EC80 of agonist, value given at the end of each example. The class given is biochemical. The method, then: Functional inhibition of—the P2Y12 receptor can be measured by in vitro assays using cell membranes from P2Y12 transfected CHO-cells, the methodology is indicated below.
Functional inhibition of 2-Me-S-ADP induced P2Y12 signalling: 5 μg of membranes were diluted in 200 μl of 200 mM NaCl, 1 mM MgCl2, 50 mM HEPES (pH 7.4), 0.01% BSA, 30 μg/ml saponin and 10 μM GDP. To this was added an EC80 concentration of agonist (2-methyl-thio-adenosine diphosphate), the required concentration of test compound and 0.1 μCi ^35S-GTPγS. The reaction was allowed to proceed at 30° C. for 45 min. Samples were then transferred on to GF/B filters using a cell harvester and washed with wash buffer (50 mM Tris (pH 7.4), 5 mM MgCl2, 50mM NaCl). Filters were then covered with scintilant and counted for the amount of ^35S-GTPγS retained by the filter. Maximum activity was that determined in the presence of the agonist and minimum activity in the absence of the agonist following subtraction of the value determined for non-specific activity. The effect of compounds at various concentrations was plotted according to the equation
y=A+((B−A)/(1+((C/x)̂D)))
and IC50 estimated where • A is the bottom plateau of the curve i.e. the final minimum y value • B is the top of the plateau of the curve i.e. the final maximum y value • C is the x value at the middle of the curve. This represents the log EC50 value when A+B=100 • D is the slope factor. • x is the original known x values. • Y is the original known y values.
Functional inhibition of 2-Me-S-ADP induced P2Y12 signalling: 5 μg of membranes were diluted in 200 μl of 200 mM NaCl, 1 mM MgCl2, 50 mM HEPES (pH 7.4), 0.01% BSA, 30 μg/ml saponin and 10 μM GDP. To this was added an EC80 concentration of agonist (2-methyl-thio-adenosine diphosphate), the required concentration of test compound and 0.1 μCi ^35S-GTPγS. The reaction was allowed to proceed at 30° C. for 45 min. Samples were then transferred on to GF/B filters using a cell harvester and washed with wash buffer (50 mM Tris (pH 7.4), 5 mM MgCl2, 50 mM NaCl). […]
For orientation: GTPγS resists hydrolysis and so accumulates on activated G proteins.
Turning to `CCOC(=O)c1cc(C#N)c(N2CCC(C(=O)NS(=O)(=O)c3ccccc3)CC2)nc1OC` [Example 7, Ethyl 5-cyano-2-methoxy-6-{4-[(phenylsulfonyl)carbamoyl]piperidin-1-yl}nicotinate], the IC50 (commonly the concentration that gives 50% inhibition) was found to be 0.134 µM.
Regarding `CCOC(=O)c1cc(C#N)c(N2CC(C(=O)NS(=O)(=O)Cc3ccccc3F)C2)nc1OC` [Example 21], the IC50 was found to be 0.015 µM.
For `CCOC(=O)c1cc(C#N)c(N2CC(C(=O)NS(=O)(=O)Cc3ccccc3)C2)nc1COCc1ccccc1` [Example 35, Ethyl 2-[(benzyloxy)methyl]-6-{3-[(benzylsulfonyl)carbamoyl]azetidin-1-yl}-5-cyanonicotinate], the IC50 was 0.089 µM.
